Data from PMC8831520, “Small molecule SWELL1 complex induction improves glycemic control and nonalcoholic fatty liver disease in murine Type 2 diabetes” (Nature Communications, 2022).

What was measured:
[1] = test system: T1, SWELL1 protein in 3T3-F442A adipocytes; assay: SWELL1 protein western blot in adipocytes; format: cell-based, murine; details: 10 and 1 μM, 4 days, then 6 h serum starving
T1 construct: host or cells: 3T3-F442A preadipocytes and differentiated adipocytes (wild type)
Procedure: (§1) In the case of 3T3-F442A adipocytes, the WT and KO cells were treated with either vehicle (DMSO), 1 or 10 µM SN-40X (after 7–11 days of differentiation) for 96 h and then stimulated with 0 and 10 nM insulin/serum-containing media with vehicle (DMSO) or SN-40X for 15 min for SWELL1 detection. […] To simulate glucolipotoxicity, 8 mM sodium palmitate was dissolved in 18.4% fatty-acid free BSA at 37 °C in DMEM medium with 25 mM glucose to obtain a conjugation ratio of 1:3 palmitate:BSA[80].
Adipocytes were washed twice in ice-cold phosphate buffer saline and lysed in RIPA buffer (150 mM NaCl, 20 mM HEPES, 1% NP-40, 5 mM EDTA, pH 7.4) with proteinase/phosphatase inhibitors (Roche). The cell lysate was further sonicated in 10 s cycle intervals 2–3 times and centrifuged at 18,407×g for 30 min at 4 °C and repeated one more time to remove the excess fat. The supernatant was collected and further estimated for protein concentration using a DC protein assay kit (Bio-Rad). Fat and liver tissues were homogenized and suspended in RIPA buffer with inhibitors and further processed in a similar fashion as described above. HUVECs were also prepared in a similar fashion except the lysates were spun only once to remove the cells debris to obtain the clear supernatant. For islets, either human or mouse islets were washed twice with phosphate buffer saline (PBS) and lysed using RIPA buffer containing protease and phosphatase inhibitors. The lysate was further clarified by freezing in liquid nitrogen for about 10 s for three cycles. The supernatant was collected from the whole lysate centrifuged at 16,260×g for 20 min at 4 °C. […] For soleus muscle, the tissue was homogenized in a Bullet Blender homogenizer (Speed-9, Time-3 mins) in 8 volumes of ice-cold muscle homogenization buffer (50 mM Tris, 25 mM NaCl, 0.2% Nonidet P-40, 5 mM EGTA, 2.5 mM EDTA, 20 mM NaF, 20 mM Na4P2O7·10H2O, 2 mM Na3VO4, pH 7.4) supplemented with protease/phosphatase inhibitor (Roche). The homogenized lysate was centrifuged two times at 18,500×g for 20 min at 4 °C and supernatant was collected for protein estimation. Protein samples were further prepared by boiling in 2X or 4X Laemmli buffer. Approximately 10–60 µg of total protein was loaded in 4–15% gradient gel (Bio-Rad) for separation and protein transfer was carried out onto the PVDF membranes (Bio-Rad). Membranes were blocked in 5% BSA (or 5% milk for SWELL1) in TBST buffer (0.2 M Tris, 1.37 M NaCl, 0.2% Tween-20, pH 7.4) for 1 h and incubated with appropriate primary antibodies (5% BSA or milk) overnight at 4 °C. […] The images were further analyzed for band intensities using ImageJ software. […]

[2] = molecular target: T2, ICl,SWELL (SWELL1-LRRC8 channel) in HEK-293 cells (Homo sapiens, UniProt Q8IWT6); assay: ICl,SWELL inhibition after hypotonic activation (open channel), patch-clamp; format: cell-based; details: HEK-293 cells; for IC50: hypotonic (210 mOsm) stimulation, outward current, compound applied at 30 pA/pF, read-out: IC50 for ICl,SWELL inhibition
T2 construct: applied when the endogenous HEK-293 cell ICl,SWELL current density reached 30 pA/pF; endogenous in cells; host or cells: HEK-293 (ATCC, #CRL-1573)
T2 sequence (Q8IWT6 1-810): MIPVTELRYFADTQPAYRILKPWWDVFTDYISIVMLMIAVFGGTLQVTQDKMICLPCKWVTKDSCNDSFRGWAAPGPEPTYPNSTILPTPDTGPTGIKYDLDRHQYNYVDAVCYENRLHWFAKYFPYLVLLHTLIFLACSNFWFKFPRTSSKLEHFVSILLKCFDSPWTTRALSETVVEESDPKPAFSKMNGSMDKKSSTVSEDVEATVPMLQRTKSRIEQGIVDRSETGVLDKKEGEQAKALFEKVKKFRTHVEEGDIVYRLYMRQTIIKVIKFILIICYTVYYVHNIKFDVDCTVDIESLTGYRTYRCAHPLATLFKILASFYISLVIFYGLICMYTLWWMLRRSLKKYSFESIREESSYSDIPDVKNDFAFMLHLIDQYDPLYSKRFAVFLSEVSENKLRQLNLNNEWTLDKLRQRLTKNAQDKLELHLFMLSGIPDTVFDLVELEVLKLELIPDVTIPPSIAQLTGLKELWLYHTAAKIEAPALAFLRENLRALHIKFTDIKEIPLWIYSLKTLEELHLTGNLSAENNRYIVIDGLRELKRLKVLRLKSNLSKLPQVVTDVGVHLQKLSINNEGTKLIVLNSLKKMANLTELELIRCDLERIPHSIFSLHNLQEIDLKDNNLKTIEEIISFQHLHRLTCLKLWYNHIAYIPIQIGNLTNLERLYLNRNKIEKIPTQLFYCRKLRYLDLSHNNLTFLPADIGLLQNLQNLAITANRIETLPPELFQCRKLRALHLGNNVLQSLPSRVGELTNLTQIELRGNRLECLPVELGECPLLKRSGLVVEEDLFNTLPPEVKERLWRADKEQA
Procedure: Patch-clamp recordings of β-cells, 3T3-F442A adipocytes, and mature human adipocytes were performed as described previously[24],[28]. Briefly, all patch-clamp experiments were conducted at room temperature using either an Axopatch 200B amplifier or a MultiClamp 700B amplifier paired to a Digidata 1550 digitizer. Data were acquired using pClamp 10.4 software. For hypotonic swelling, extracellular solution consisted of the following (in mM): 90 NaCl, 2 CsCl, 1 MgCl2, 1 CaCl2, 10 HEPES, 10 mannitol, pH 7.4 with NaOH (210 mOsm/kg). The isotonic extracellular solution consisted of the same composition above but with 110 mM instead of 10 mM mannitol (300 mOsm/kg). The swell-activated current was elicited by perfusing cells with a hypotonic solution (210 mOsm/kg). […] For perforated-patch recordings in isolated human adipocytes, the intracellular solution was as above but without ATP and GTP, and contained 360 μg/ml Amphotericin B (Sigma). The holding potential was 0 mV. Voltage ramps from −100 to +100 mV (at 0.4 mV/ms) were applied every 4 s. The sampling interval was 100 μs and filtered at 10 kHz. For perforated-patch recordings, cells with a membrane resistance below 1 GΩ or access resistance above 20 MΩ were discarded. […]

[3] = test system: T1, SWELL1 protein in 3T3-F442A adipocytes; assay: SWELL1 protein under glucolipotoxic stress (palmitate + glucose); format: cell-based, murine; details: 10 µM 96 h pretreatment, then 1 mM palmitate + 25 mM glucose 16 h
Procedure: as §1

T2D and non-T2D mice = assay: Metabolic phenotyping: fasting glucose, GTT, ITT; details: compared to Inactive 1
Procedure: All compounds were dissolved in Kolliphor® EL (Sigma, #C5135).
(§2) Mice were fasted for 6 h prior to glucose tolerance tests (GTT). Baseline glucose levels at 0 min timepoint (fasting glucose, FG) were measured from a blood sample collected from tail snipping using glucometer (Bayer Healthcare LLC). Either 1 or 0.75 g D-Glucose/kg body weight were injected (i.p.) for lean or HFD mice, respectively and glucose levels were measured at 5 or 7, 15, 30, 60, 90, and 120 min timepoints after injection. For insulin tolerance tests (ITTs), the mice were fasted for 4 h. Similar to GTTs, the baseline blood glucose levels were measured at 0 min timepoint and 15, 30, 60, 90, and 120 min timepoints post-injection (i.p.) of insulin (HumulinR, 1 U/kg bodyweight for lean mice or 1.25 U/kg body weight for HFD mice). […] The collected plasma was then measured for insulin content by using Ultra-Sensitive Mouse Insulin ELISA Kit (Crystal Chem, #90080). All mouse studies were performed in a blinded fashion.

[4] = molecular target: T3, R103E-SWELL1 expressing HEK-293 cells (R103E O/E) (Homo sapiens, UniProt Q8IWT6, R103E); assay: ICl,SWELL inhibition in SWELL1-R103E overexpressing cells, patch-clamp; format: cell-based; details: R103E-SWELL1 overexpressing HEK-293 cells, compound applied at maximum current density; read-out: IC50 for ICl,SWELL inhibition, R103E O/E
T3 construct: P2A:EGFP (C); host or cells: HEK-293, Lipofectamine 2000, co-transfected with CMV-Cre; EGFP+ cells recorded
From the text: See also Fig. 6 for a schematic representation. […] For SWELL1-R103E overexpression experiments, HEK-293 cells were transfected with either control Cre plasmid (CMV-Cre, McDonnell Genome Institute in Washington University in St. Louis) or Cre plus R103E-GFP (CAG-LoxP-stop-LoxP-SWELL1-R103E/3XFlag:P2A:EGFP, Vector Biolabs) plasmid using Lipofectamine 2000 as per the manufacturer’s protocol. SWELL1-R103E expressing HEK-293 cells were identified by EGFP + fluorescence.

[5] = test system: pancreatic islets of T2D mice; assay: Insulin secretion of treated T2D mice (serum insulin, islet perifusion GSIS); format: in vivo, mouse; details: islets of T2D KKAy mice, compared to Inactive 1
Procedure: as §2

[6] = molecular target: Mus musculus SWELL1 (LRRC8a, leucine-rich repeat-containing protein 8a) (Mus musculus); assay: cryo-EM structure; SWELL1 in MSP1E3D1 lipid nanodiscs (2:1:1 DOPE:POPC:POPS), 1 mg/mL SWELL1-MSP1E3D1 with 100 µM SN-407; 20 mM HEPES, 150 mM KCl, pH 7.4; C6 refinement, then symmetry expansion and relaxation
[7] = 8 weeks HFD mice, 5 mg/kg/day × 4 days

T3 sequence (Q8IWT6 whole entry R103E): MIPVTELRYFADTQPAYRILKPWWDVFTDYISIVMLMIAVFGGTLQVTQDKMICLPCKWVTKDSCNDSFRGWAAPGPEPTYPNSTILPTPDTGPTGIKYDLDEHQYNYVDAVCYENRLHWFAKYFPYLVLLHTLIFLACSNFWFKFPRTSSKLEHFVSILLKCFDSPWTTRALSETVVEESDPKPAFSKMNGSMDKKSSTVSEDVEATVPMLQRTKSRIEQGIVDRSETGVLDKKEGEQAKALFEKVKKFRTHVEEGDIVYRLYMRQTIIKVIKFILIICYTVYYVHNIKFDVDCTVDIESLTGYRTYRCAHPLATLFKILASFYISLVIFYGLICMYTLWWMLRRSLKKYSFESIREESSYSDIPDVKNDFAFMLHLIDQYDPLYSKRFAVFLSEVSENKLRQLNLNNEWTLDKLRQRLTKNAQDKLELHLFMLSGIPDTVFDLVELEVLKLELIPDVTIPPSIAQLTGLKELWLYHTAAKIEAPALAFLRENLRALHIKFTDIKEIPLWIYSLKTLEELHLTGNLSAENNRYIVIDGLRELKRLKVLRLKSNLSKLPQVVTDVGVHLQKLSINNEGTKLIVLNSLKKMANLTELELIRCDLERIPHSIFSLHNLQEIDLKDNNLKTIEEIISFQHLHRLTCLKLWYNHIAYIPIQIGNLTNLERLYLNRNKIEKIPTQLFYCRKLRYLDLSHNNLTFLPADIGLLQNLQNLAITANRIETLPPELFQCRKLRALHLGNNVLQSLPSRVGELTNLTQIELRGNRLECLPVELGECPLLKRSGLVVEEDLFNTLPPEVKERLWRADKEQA

O=C(O)CCCOc1cc2c(c(Cl)c1Cl)C(=O)C(C1CCCC1)C2 (stereo not shown) [Inactive 2, 4-((6,7-dichloro-2-cyclopentyl-1-oxo-2,3-dihydro-1H-inden-5-yl)oxy)butanoic acid]
SWELL1 protein level relative to vehicle-treated controls [1]: did not significantly increase
IC50 [2]: 10.6 µM
prevention of palmitate/glucose-induced reduction of SWELL1 protein [3]: not

CCCCC1(C2CCCC2)Cc2cc(OCCCB(O)O)c(Cl)c(Cl)c2C1=O (stereo not shown) [Inactive 3, (3-((2-butyl-6,7-dichloro-2-cyclopentyl-1-oxo-2,3-dihydro-1H-inden-5-yl)oxy)propyl)boronic acid]
IC50 [2]: 18.3 µM

CCCCC1(C2CCCC2)Cc2cc(OCCCCC(=O)O)c(Cl)c(Cl)c2C1=O (stereo not shown) [SN-403, 5-((2-butyl-6,7-dichloro-2-cyclopentyl-1-oxo-2,3-dihydro-1H-inden-5-yl)oxy)pentanoic acid]
fasting blood glucose (T2D and non-T2D mice; [7]): significantly reduced
glucose tolerance (T2D and non-T2D mice; [7]): improved
ICl,SWELL inhibitory activity compared to SN-401 [2]: increased ICl,SWELL inhibitory activity

CCCCC1(C2CCCC2)Cc2cc(OCCCCCCC(=O)O)c(Cl)c(Cl)c2C1=O (stereo not shown) [SN-407, 7-((2-butyl-6,7-dichloro-2-cyclopentyl-1-oxo-2,3-dihydro-1H-inden-5-yl)oxy)heptanoic acid]
glucose tolerance (GTT AUC) (T2D and non-T2D mice; T2D KKAy mice, 5 mg/kg i.p. 4 days): improved
IC50 [4]: 4.2 µM
ICl,SWELL inhibitory activity compared to SN-401 [2]: increased ICl,SWELL inhibitory activity
IC50 [2]: 1.6 µM
GSIS [5]: increased

Mus musculus SWELL1 (LRRC8a, leucine-rich repeat-containing protein 8a) (natural protein)
stoichiometry N [6]: 6
